Data taken from ChEMBL document CHEMBL5352388 (Eur J Med Chem, 2022).
The source made the active and inactive calls. No cut-off for these calls is given here.

Columns and labels:
CYP2C9 = CYP2C9 (Homo sapiens, UniProt P11712); assay: Inhibition of CYP2C9 (unknown origin) at 10 uM incubated for 20 mins in presence of NADPH by LC/MS/MS analysis relative to control; assay type: ADME
A549 [1] = assay: Antitumor activity against human A549 cells xenografted in BALB/c mouse assessed as reduction in tumor growth at 10 mg/kg,ip administrated for 15 days; assay type: functional, organism-based; conditions: time 15.0 day
A549 [2] = assay: cells; conditions: Homo sapiens, A549, 72 h
Description: Antiproliferative activity against human A549 cells assessed as inhibition of cell growth incubated for 72 hrs by CCK-8 assay

MGC-803 = assay: cells; conditions: Homo sapiens, MGC-803, 72 h
Description: Antiproliferative activity against human MGC-803 cells assessed as inhibition of cell growth incubated for 72 hrs by CCK-8 assay

CYP2D6 = CYP2D6 (Homo sapiens, UniProt P10635); assay: Inhibition of CYP2D6 (unknown origin) at 10 uM incubated for 20 mins in presence of NADPH by LC/MS/MS analysis relative to control; assay type: ADME
A549 [3] = assay: Induction of apoptosis in human A549 cells at 4 uM incubated for 48 hrs by Annexin V-FITC/PI staining based flow cytometry method; assay type: functional
[4] = Intrinsic clearance in human liver microsomes measured upto 60 mins in presence of NADPH by LC/MS/MS analysis; assay type: ADME, Microsome; conditions: read-out: CLH
CYP1A2 = molecular target: T1, CYP1A2 (Homo sapiens, UniProt P05177); assay: Inhibition of CYP1A2 (unknown origin) at 10 uM incubated for 20 mins in presence of NADPH by LC/MS/MS analysis relative to control; assay type: ADME
T1 sequence (P05177 whole entry): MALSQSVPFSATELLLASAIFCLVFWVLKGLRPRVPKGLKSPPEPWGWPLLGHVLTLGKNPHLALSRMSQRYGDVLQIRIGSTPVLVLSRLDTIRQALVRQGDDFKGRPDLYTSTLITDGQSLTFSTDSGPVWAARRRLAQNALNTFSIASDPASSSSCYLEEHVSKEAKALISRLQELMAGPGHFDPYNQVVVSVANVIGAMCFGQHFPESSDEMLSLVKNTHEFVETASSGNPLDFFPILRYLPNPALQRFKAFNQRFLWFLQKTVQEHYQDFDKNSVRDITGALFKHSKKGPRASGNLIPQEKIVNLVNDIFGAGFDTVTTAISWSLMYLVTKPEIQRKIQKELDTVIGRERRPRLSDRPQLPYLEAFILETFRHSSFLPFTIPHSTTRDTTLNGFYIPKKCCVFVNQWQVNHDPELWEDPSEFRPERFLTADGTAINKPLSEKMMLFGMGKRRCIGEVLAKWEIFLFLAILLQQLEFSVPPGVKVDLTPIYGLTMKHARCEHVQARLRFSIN

HeLa = assay: Antiproliferative activity against human HeLa cells assessed as inhibition of cell growth incubated for 72 hrs by CCK-8 assay; assay type: functional, cell-based
[5] = molecular target: T2, Amine oxidase [flavin-containing] A (Homo sapiens, UniProt P21397)
T2 sequence (P21397 whole entry): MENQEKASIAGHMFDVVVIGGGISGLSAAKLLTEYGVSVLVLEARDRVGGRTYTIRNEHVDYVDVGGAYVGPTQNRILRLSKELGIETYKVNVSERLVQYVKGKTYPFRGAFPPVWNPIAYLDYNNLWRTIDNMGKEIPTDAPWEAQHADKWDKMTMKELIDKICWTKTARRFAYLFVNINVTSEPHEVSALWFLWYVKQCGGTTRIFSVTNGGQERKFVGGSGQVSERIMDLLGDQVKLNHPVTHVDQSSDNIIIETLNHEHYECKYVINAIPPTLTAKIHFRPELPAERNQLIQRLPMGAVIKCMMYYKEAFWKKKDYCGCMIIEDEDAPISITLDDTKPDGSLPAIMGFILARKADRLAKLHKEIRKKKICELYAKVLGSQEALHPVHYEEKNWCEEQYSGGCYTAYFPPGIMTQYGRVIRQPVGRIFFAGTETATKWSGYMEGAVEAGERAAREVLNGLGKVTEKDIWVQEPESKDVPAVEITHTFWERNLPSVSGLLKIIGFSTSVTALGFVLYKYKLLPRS
Description: Inhibition of recombinant MAO-A (unknown origin) incubated for 60 mins by luminescence based flow cytometry

[6] = Intrinsic clearance in human liver measured upto 60 mins in presence of NADPH by LC/MS/MS analysis; assay type: ADME, tissue-based; conditions: read-out: CLH
[7] = molecular target: T3, Amine oxidase [flavin-containing] B (Homo sapiens, UniProt P27338)
T3 sequence (P27338 whole entry): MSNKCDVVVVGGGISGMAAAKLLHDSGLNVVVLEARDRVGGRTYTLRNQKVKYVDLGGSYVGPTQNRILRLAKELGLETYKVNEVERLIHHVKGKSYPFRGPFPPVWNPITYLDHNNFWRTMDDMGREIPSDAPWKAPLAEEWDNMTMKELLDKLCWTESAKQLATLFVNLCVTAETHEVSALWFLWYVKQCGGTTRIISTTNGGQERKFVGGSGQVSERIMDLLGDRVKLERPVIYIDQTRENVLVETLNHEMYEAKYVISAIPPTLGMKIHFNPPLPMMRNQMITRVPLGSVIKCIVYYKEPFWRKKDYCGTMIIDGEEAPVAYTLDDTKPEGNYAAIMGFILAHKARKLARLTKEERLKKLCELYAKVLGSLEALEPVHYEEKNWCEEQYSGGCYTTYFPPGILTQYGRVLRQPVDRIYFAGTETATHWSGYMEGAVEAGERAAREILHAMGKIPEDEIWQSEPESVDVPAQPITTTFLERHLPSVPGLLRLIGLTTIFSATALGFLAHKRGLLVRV
Description: Inhibition of recombinant MAO-B (unknown origin) incubated for 60 mins by luminescence based flow cytometry

MCF7 = assay: cells; conditions: Homo sapiens, MCF7, 72 h
Description: Antiproliferative activity against human MCF7 cells assessed as inhibition of cell growth incubated for 72 hrs by CCK-8 assay

NCI-H460 = assay: cells; conditions: Homo sapiens, NCI-H460, 72 h
Description: Antiproliferative activity against human NCI-H460 cells assessed as inhibition of cell growth incubated for 72 hrs by CCK-8 assay

[8] = Toxicity in BALB/c mouse xenografted with human A549 cells assessed as change in body weight at 10 mg/kg,ip administrated for 15 days; assay type: organism-based; conditions: in vivo, 360 h, time 15 day
in vitro = conditions: human, THLE-2 cells
Description: Antiproliferative activity against human THLE-2 cells assessed as inhibition of cell growth incubated for 72 hrs by CCK-8 assay

[9] = molecular target: Voltage-gated inwardly rectifying potassium channel KCNH2 (Homo sapiens, UniProt Q12809); assay: Inhibition of human ERG stably expressed in CHO cells by patch clamp assay; assay type: toxicity, cell-based
[10] = Half life in human liver microsomes measured upto 60 mins in presence of NADPH by LC/MS/MS analysis; assay type: ADME, Microsome
CYP3A4 = CYP3A4 (Homo sapiens, UniProt P08684); assay: Inhibition of CYP3A4 (unknown origin) at 10 uM incubated for 20 mins in presence of NADPH by LC/MS/MS analysis relative to control; assay type: ADME
CYP2C19 = CYP2C19 (Homo sapiens, UniProt P33261); assay: Inhibition of CYP2C19 (unknown origin) at 10 uM incubated for 20 mins in presence of NADPH by LC/MS/MS analysis relative to control; assay type: ADME
CYP2C19, sequence (P33261 whole entry): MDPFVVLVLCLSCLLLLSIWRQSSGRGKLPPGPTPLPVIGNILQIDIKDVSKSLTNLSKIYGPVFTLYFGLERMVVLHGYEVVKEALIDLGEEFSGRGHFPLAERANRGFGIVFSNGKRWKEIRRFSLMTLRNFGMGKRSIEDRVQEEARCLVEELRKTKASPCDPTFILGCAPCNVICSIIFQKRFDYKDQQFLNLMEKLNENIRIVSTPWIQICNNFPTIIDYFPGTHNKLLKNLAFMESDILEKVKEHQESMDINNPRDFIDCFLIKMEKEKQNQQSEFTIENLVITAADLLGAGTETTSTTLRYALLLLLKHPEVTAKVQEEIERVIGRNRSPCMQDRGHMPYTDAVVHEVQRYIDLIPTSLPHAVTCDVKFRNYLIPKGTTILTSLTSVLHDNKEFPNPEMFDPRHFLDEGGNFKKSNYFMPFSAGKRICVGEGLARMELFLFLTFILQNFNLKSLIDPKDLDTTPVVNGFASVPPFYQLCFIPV

CYP3A4, sequence (P08684 whole entry): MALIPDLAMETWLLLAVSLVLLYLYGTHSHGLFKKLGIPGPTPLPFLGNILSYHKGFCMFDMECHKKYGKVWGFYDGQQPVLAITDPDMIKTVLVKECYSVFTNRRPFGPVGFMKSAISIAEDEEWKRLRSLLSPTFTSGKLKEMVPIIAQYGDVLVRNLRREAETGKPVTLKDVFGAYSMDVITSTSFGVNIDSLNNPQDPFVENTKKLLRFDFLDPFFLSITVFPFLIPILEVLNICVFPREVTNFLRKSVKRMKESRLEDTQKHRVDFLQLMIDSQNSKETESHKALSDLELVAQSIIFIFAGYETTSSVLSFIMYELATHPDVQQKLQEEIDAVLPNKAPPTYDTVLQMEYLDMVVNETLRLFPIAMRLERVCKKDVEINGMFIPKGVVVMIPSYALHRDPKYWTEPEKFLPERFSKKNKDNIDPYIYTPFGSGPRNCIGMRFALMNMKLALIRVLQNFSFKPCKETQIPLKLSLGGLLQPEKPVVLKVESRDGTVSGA
Voltage-gated inwardly rectifying potassium channel KCNH2, sequence (Q12809 whole entry): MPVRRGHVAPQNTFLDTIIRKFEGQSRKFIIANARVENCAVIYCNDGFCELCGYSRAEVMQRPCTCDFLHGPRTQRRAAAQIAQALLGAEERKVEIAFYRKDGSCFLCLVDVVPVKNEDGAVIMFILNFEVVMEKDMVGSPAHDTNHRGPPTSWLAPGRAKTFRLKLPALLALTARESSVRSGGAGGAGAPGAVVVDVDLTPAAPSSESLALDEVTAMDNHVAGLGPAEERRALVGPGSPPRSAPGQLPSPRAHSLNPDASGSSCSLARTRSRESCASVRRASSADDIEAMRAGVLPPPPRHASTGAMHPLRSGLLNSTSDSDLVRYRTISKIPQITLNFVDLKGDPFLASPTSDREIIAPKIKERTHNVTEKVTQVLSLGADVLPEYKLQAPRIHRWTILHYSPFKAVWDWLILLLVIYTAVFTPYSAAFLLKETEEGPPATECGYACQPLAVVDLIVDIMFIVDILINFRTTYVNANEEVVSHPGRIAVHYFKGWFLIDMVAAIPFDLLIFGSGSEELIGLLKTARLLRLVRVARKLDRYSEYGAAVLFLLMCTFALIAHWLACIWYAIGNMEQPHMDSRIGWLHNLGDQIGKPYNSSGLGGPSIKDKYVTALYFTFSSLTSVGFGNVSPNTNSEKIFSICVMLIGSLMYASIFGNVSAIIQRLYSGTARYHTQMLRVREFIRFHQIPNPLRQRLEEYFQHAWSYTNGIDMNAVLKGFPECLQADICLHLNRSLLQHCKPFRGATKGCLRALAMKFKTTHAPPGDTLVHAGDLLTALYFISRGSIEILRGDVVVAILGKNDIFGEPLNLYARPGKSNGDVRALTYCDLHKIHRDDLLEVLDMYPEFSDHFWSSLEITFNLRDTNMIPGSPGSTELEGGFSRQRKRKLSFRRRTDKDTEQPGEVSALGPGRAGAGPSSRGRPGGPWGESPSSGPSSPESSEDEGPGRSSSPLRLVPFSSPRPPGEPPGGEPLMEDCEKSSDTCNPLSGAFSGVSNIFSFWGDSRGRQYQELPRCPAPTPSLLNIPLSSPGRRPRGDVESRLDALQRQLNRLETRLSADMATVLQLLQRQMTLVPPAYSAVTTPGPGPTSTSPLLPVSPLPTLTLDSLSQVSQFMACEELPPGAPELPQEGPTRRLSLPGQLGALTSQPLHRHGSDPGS
CYP2C9, sequence (P11712 whole entry): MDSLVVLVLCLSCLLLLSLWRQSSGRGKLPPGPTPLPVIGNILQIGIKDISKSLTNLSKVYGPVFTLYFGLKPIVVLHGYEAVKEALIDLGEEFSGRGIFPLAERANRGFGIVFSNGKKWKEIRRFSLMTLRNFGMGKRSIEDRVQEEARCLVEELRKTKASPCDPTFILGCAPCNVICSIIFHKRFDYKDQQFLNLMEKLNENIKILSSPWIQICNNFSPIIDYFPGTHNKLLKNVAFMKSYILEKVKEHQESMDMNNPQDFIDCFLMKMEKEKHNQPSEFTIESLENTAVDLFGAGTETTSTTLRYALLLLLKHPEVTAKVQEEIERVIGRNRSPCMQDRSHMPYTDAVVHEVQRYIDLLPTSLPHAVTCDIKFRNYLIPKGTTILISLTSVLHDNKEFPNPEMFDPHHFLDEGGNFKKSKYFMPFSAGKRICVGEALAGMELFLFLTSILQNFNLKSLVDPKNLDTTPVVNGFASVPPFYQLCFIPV
CYP2D6, sequence (P10635 whole entry): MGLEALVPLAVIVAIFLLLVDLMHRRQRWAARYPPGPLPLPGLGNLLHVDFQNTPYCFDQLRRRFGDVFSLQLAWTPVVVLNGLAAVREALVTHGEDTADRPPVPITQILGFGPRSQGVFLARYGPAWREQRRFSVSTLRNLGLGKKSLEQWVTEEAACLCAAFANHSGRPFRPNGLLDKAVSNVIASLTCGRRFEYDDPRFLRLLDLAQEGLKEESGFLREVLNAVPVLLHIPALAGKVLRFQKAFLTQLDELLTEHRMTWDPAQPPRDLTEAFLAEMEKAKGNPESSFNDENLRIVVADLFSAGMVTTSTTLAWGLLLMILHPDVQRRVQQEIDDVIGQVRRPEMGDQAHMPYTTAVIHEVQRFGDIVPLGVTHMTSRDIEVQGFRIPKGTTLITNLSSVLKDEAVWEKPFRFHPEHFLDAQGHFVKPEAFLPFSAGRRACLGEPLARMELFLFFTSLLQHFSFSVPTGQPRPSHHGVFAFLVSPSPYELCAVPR

inhibition at 20 min, 10 µM (CYP2C9): 3.6%
IC50 (A549 [2]): 3.6 µM
IC50 (MGC-803): 11.5 µM
inhibition at 20 min, 10 µM (CYP2D6): 88.6%
microsomal CLint [4]: 24.5 µL/min/mg
inhibition at 20 min, 10 µM (CYP1A2): 4.9%
IC50 (HeLa): 10.2 µM
IC50 [5]: > 20 µM
CLint scaled [6]: 22.1 mL/min/kg
IC50 [7]: > 20 µM
IC50 (MCF7): 10.5 µM
IC50 (NCI-H460): 4.8 µM
IC50 at 72 h (in vitro): 5.7 µM
half-life [10]: 56.6 min
inhibition at 20 min, 10 µM (CYP3A4): 19%
inhibition at 20 min, 10 µM (CYP2C19): 10.5%
SMILES: Cc1ccc(-c2cc3occ(CN4CCC[C@H](N)C4)c3cc2-c2ccc(C#N)cc2)cc1
Activity (A549 [1]): Active
Activity (A549 [3]): 20.94%
Activity [8]: Non-Toxic
IC50 [9]: 6.06 µM
